The target of assay [1] is T1, aggregated synthetic Aβ40 (Homo sapiens, UniProt P05067).
T1 construct: Synthetic Aβ40 is aggregated at a concentration of 50 μM
In words: Thiazin-red R displacement fluorescence assay on aggregated A-beta. The assay is classed as binding. The settings on record: displacement of Thiazin-red R from aggregated Aβ40; compound 0.3 nM to 10000 nM; 30 min room temperature; Ex 531 nm/Em 595 nm.

Assay [2] deals with T2, aggregated recombinant human-microtubule associated protein Tau (Homo sapiens, UniProt P10636).
T2 construct: Recombinant human-microtubule associated protein Tau purified from E. coli is aggregated at a concentration of 5 μM with Arachidonic Acid (100 μM) in Tris 10 mM pH8, 24 h at 37° C
T2 sequence (P10636 whole entry): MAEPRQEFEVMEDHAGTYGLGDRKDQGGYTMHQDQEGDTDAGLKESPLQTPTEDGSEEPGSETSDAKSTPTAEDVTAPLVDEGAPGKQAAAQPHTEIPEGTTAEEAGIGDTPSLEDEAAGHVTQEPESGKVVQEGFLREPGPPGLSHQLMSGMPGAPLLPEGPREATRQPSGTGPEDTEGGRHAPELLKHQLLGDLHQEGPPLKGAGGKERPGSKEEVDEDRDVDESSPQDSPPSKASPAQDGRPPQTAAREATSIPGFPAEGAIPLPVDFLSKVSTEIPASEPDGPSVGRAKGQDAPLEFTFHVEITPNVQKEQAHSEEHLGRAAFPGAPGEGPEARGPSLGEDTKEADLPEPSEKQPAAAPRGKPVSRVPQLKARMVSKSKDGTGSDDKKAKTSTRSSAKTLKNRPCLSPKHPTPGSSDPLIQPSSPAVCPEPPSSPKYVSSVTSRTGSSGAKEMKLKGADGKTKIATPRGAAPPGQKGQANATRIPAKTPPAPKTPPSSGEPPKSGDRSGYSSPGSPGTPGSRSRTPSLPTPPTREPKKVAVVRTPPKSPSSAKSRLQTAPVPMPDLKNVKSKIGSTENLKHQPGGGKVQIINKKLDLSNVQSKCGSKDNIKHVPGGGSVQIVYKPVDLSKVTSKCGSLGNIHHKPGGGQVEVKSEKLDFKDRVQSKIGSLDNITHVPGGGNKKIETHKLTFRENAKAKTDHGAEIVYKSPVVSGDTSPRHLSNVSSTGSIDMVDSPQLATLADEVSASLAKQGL
In words: Thiazin-red R displacement fluorescence assay on aggregated Tau. Format: binding. Particulars: displacement of Thiazin-red R from aggregated Tau; compound 0.3 nM to 10000 nM; 30 min room temperature; Ex 531 nm/Em 595 nm.

T1 sequence (P05067 672-711 limits assumed): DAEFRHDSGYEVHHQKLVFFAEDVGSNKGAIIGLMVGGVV

Consider `CCCNC(=O)c1cccc(-c2cn3c(=O)/c(=C/c4cc(Cl)c(O)c(OC)c4)sc3n2)c1` [Example 107, 3-{2-[1-(3-Chloro-4-hydroxy-5-methoxy-phenyl)-meth-(Z)-ylidene]-3-oxo-2,3-dihydro-imidazo[2,1-b]thiazol-6-yl}-N-propyl-benzamide], for which the IC50 worked out at 2630 nM in assay [1] and 3 nM in assay [2].

In the case of `COc1cc(/C=c2\sc3nc(-c4ccc5c(c4)CC(=O)N5)cn3c2=O)cc(Cl)c1O` [Example 102, 5-{2-[1-(3-Chloro-4-hydroxy-5-methoxy-phenyl)-meth-(Z)-ylidene]-3-oxo-2,3-dihydro-imidazo[2,1-b]thiazol-6-yl}-1,3-dihydro-indol-2-one], the figures for the IC50 in assay [1] and in assay [2] were 226 nM and 12 nM, respectively.

`COc1cc(/C=c2\sc3nc(-c4cc(C)nc(C)c4)cn3c2=O)cc(OC)c1O` [Example 17, 2-[1-(4-Hydroxy-3,5-dimethoxy-phenyl)-meth-(Z)-ylidene]-6-(2,6-dimethyl-pyridin-4-yl)-imidazo[2,1-b]thiazol-3-one]: the results for the IC50 in assay [1] and in assay [2] were 68 nM and 5 nM, respectively.

For the compound `CNC(=O)c1cccc(-c2cn3c(=O)/c(=C/c4cc(Cl)c(O)c(OC)c4)sc3n2)c1` [Example 108, 3-{2-[1-(3-Chloro-4-hydroxy-5-methoxy-phenyl)-meth-(Z)-ylidene]-3-oxo-2,3-dihydro-imidazo[2,1-b]thiazol-6-yl}-N-methyl-benzamide], the values for the concentration for half-maximal inhibition (IC50) in assay [1] and in assay [2] were 395 nM and 4 nM, respectively.

Turning to `COc1cc(/C=c2\sc3nc(-c4cccc(OC(F)(F)F)c4)cn3c2=O)cc(OC(C)C)c1O` [Example 34, 2-[1-(4-Hydroxy-3-methoxy-5-isopropoxy-phenyl)-meth-(Z)-ylidene]-6-(3-trifluoromethoxy-phenyl)-imidazo[2,1-b]thiazol-3-one], the IC50 amounted to 437 nM in assay [1] and 26 nM in assay [2].

As to `COc1cc(/C=c2\sc3nc(-c4ccc(OC(F)F)cc4)cn3c2=O)cc(Cl)c1O` [Example 88, 2-[1-(3-Chloro-4-hydroxy-5-methoxy-phenyl)-meth-(Z)-ylidene]-6-(4-(difluoromethoxy)phenyl)-imidazo[2,1-b]thiazol-3-one], the half-maximal inhibitory concentration (IC50) in assay [1] came to 14 nM; in assay [2] it was 0.6 nM.

For the compound `COc1cc(/C=c2\sc3nc(-c4cccc(C)c4)cn3c2=O)cc(Cl)c1O` [Example 52, 2-[1-(3-Chloro-4-hydroxy-5-methoxy-phenyl)-meth-(Z)-ylidene]-6-m-tolyl-imidazo[2,1-b]thiazol-3-one], the IC50 was determined as 1020 nM in assay [1] and 7 nM in assay [2].

In the case of `COc1cc(/C=c2\sc3nc(-c4ccccc4)cn3c2=O)cc(Cl)c1O` [Example 60, 2-[1-(3-Chloro-4-hydroxy-5-methoxy-phenyl)-meth-(Z)-ylidene]-6-phenyl-imidazo[2,1-b]thiazol-3-one], the figures for the 50% inhibitory concentration (IC50) in assay [1] and in assay [2] were 851 nM and 25 nM, respectively.

With `COc1cc(/C=c2\sc3nc(-c4cccc(C(=O)NCCF)c4)cn3c2=O)cc(Cl)c1O` [Example 106, 3-{2-[1-(3-Chloro-4-hydroxy-5-methoxy-phenyl)-meth-(Z)-ylidene]-3-oxo-2,3-dihydro-imidazo[2,1-b]thiazol-6-yl}-N-(2-fluoro-ethyl)-benzamide], the IC50 was found to be 1080 nM in assay [1] and 8 nM in assay [2].

For `COc1cc(/C=c2\sc3nc(-c4c(F)cccc4F)cn3c2=O)cc(Cl)c1O` [Example 105, 2-[1-(3-Chloro-4-hydroxy-5-methoxy-phenyl)-meth-(Z)-ylidene]-6-(2,6-difluoro-phenyl)-imidazo[2,1-b]thiazol-3-one], the values for the IC50 in assay [1] and in assay [2] were 5550 nM and 13 nM, respectively.

For the compound `COc1cc(/C=c2\sc3nc(-c4cccc(Cl)c4)cn3c2=O)cc(F)c1O` [Example 39, 2-[1-(3-fluoro-4-hydroxy-5-methoxy-phenyl)-meth-(Z)-ylidene]-6-(3-chloro-phenyl)-imidazo[2,1-b]thiazol-3-one], the half-inhibitory concentration (IC50) in assay [1] came out at 412 nM; in assay [2], 11 nM.

Consider `COc1cc(/C=c2\sc3nc(-c4ccc(C(=O)O)cc4)cn3c2=O)cc(F)c1O` [Example 138, 4-{2-[1-(3-Fluoro-4-hydroxy-5-methoxy-phenyl)-meth-(Z)-ylidene]-3-oxo-2,3-dihydro-imidazo[2,1-b]thiazol-6-yl}-benzoic acid], for which the 50% inhibitory concentration (IC50) in assay [1] worked out at 898 nM; in assay [2] it was 14 nM.

`COc1cc(/C=c2\sc3nc(-c4ccc(C(=O)NCCF)cc4)cn3c2=O)cc(Cl)c1O` [Example 116, 4-{2-[1-(3-Chloro-4-hydroxy-5-methoxy-phenyl)-meth-(Z)-ylidene]-3-oxo-2,3-dihydro-imidazo[2,1-b]thiazol-6-yl}-N-(2-fluoro-ethyl)-benzamide]: the results for the IC50 in assay [1] and in assay [2] were 820 nM and 3 nM, respectively.

For `COc1cc(/C=c2\sc3nc(-c4ccccc4C)cn3c2=O)cc(Cl)c1O` [Example 10, 2-[1-(3-Chloro-4-hydroxy-5-methoxy-phenyl)-meth-(Z)-ylidene]-6-o-tolyl-imidazo[2,1-b]thiazol-3-one], the 50% inhibitory concentration (IC50) turned out to be 1220 nM in assay [1] and 28 nM in assay [2].

Consider `COc1cc(/C=c2\sc3nc(-c4cccnc4)cn3c2=O)cc(Cl)c1O` [Example 78, 2-[1-(3-Chloro-4-hydroxy-5-methoxy-phenyl)-meth-(Z)-ylidene]-6-(pyridin-3-yl)-imidazo[2,1-b]thiazol-3-one], for which the results for the IC50 in assay [1] and in assay [2] were 700 nM and 10.4 nM, respectively.

For `COc1cc(/C=c2\sc3nc(-c4cccc(S(=O)(=O)F)c4)cn3c2=O)cc(Cl)c1O` [Example 152, 3-{2-[1-(3-Chloro-4-hydroxy-5-methoxy-phenyl)-meth-(Z)-ylidene]-3-oxo-2,3-dihydro-imidazo[2,1-b]thiazol-6-yl}-benzenesulfonyl fluoride], the 50% inhibitory concentration (IC50) was determined as 19 nM in assay [1] and 7 nM in assay [2].

`COc1cc(/C=c2\sc3nc(-c4cccc(OC(F)(F)F)c4)cn3c2=O)ccc1O` [Example 36, 2-[1-(4-Hydroxy-3-methoxy-phenyl)-meth-(Z)-ylidene]-6-(3-trifluoromethoxy-phenyl)-imidazo[2,1-b]thiazol-3-one]: the IC50 in assay [1] was greater than 10000 nM; in assay [2] it was 401 nM.

Take `O=c1/c(=C/c2cc(Cl)c(O)c(OCCCF)c2)sc2nc(-c3ccncc3)cn12` [Example 123, 2-[1-(3-Chloro-5-(3-fluoropropoxy)-4-hydroxy-phenyl)-meth-(Z)-ylidene]-6-pyridin-4-yl-imidazo[2,1-b]thiazol-3-one]: the figures for the half-inhibitory concentration (IC50) in assay [1] and in assay [2] were 1060 nM and 12 nM, respectively.

In the case of `COc1cc(/C=c2\sc3nc(-c4cc(C)on4)cn3c2=O)cc(Cl)c1O` [Example 84, 2-[1-(3-Chloro-4-hydroxy-5-methoxy-phenyl)-meth-(Z)-ylidene]-6-(5-methyl-isoxazol-3-yl)-imidazo[2,1-b]thiazol-3-one], the values for the IC50 in assay [1] and in assay [2] were 990 nM and 18 nM, respectively.

Regarding `COc1cc(/C=c2\sc3nc(-c4ccc(OCCF)cc4)cn3c2=O)cc(Cl)c1O` [Example 79, 2-[1-(3-Chloro-4-hydroxy-5-methoxy-phenyl)-meth-(Z)-ylidene]-6-(4-(2-fluoroethoxyl)phenyl)-imidazo[2,1-b]thiazol-3-one], the concentration for half-maximal inhibition (IC50) in assay [1] was found to be 25 nM; in assay [2], 6 nM.

As for `COc1cc(/C=c2\sc3nc(-c4cccc(C#N)c4)cn3c2=O)cc(Cl)c1O` [Example 44, 3-{2-[1-(3-Chloro-4-hydroxy-5-methoxy-phenyl)-meth-(Z)-ylidene]-3-oxo-2,3-dihydro-imidazo[2,1-b]thiazol-6-yl}-benzonitrile], the figures for the IC50 in assay [1] and in assay [2] were 24000 nM and 6 nM, respectively.

Consider `COc1cc(/C=c2\sc3nc(-c4ccc(C(=O)N(C)C)cc4)cn3c2=O)cc(Cl)c1O` [Example 126, 4-{2-[1-(3-Chloro-4-hydroxy-5-methoxy-phenyl)-meth-(Z)-ylidene]-3-oxo-2,3-dihydro-imidazo[2,1-b]thiazol-6-yl}-N,N-dimethyl-benzamide], for which the IC50 in assay [1] turned out to be 550 nM; in assay [2], 28 nM.

Turning to `CCCOc1cc(/C=c2\sc3nc(-c4cncnc4)cn3c2=O)cc(Cl)c1O` [Example 130, 2-[1-(3-Chloro-4-hydroxy-5-propoxy-phenyl)-meth-(Z)-ylidene]-6-pyrimidin-5-yl-imidazo[2,1-b]thiazol-3-one], the IC50 was found to be 1940 nM in assay [1] and 67 nM in assay [2].

Regarding `CCOc1cc(/C=c2\sc3nc(-c4ccc(Cl)cc4)cn3c2=O)ccc1O` [Example 5, 6-(4-Chloro-phenyl)-2-[1-(3-ethoxy-4-hydroxy-phenyl)-meth-(Z)-ylidene]-imidazo[2,1-b]thiazol-3-one], the IC50 is 1160 nM in assay [1] and 178 nM in assay [2].

For the compound `COc1cc(/C=c2\sc3nc(-c4ccnc(C)c4)cn3c2=O)ccc1O` [Example 12, 2-[1-(4-Hydroxy-3-methoxy-phenyl)-meth-(Z)-ylidene]-6-(2-methyl-pyridin-4-yl)-imidazo[2,1-b]thiazol-3-one], the results for the IC50 in assay [1] and in assay [2] were greater than 10000 nM and 79 nM, respectively.

With `COc1cc(/C=c2\sc3nc(-c4cccc(C(F)(F)F)c4)cn3c2=O)cc(OC)c1O` [Example 19, 2-[1-(4-Hydroxy-3,5-dimethoxy-phenyl)-meth-(Z)-ylidene]-6-(3-trifluoromethyl-phenyl)-imidazo[2,1-b]thiazol-3-one], the values for the IC50 in assay [1] and in assay [2] were 115 nM and 1 nM, respectively.

In the case of `COc1cc(/C=c2\sc3nc(-c4cccc(C)c4)cn3c2=O)cc(OC)c1O` [Example 20, 2-[1-(4-Hydroxy-3,5-dimethoxy-phenyl)-meth-(Z)-ylidene]-6-m-tolyl-imidazo[2,1-b]thiazol-3-one], the half-inhibitory concentration (IC50) in assay [1] worked out at 20 nM; in assay [2], 3 nM.

Source of the values: patent US20150157739A1, “Imidazo[2,1]thiazol-3-one derivatives” (Hoffmann-La Roche Inc., priority 2012, published 2015).
